Measured values taken from US20140315972A1, “RS)-2-(2-oxo-4-phenylpyrrolidin-1-yl)acetamide compound having modulatory activity with a commensurate effect, pharmaceutical substance (variants) and its application, composition (variants) thereof” (priority 2011, published 2014).
Marks after values point to notes of the source that are not given here.

Key:
[1] = Daily diuresis in non-obese humans; format: in vivo, human; conditions: for Daily urine volume (ml/day, %): adult humans, background (not treated) = 100
Method: The effect of Phenotropil (25, 50 and 100 mg in the morning) on diuresis was investigated in non-obese groups (males and females 23-47 years) for 10 days. The daily volume of urine when treated with placebo and Phenotropil was recorded.

[2] = tested on: glutamate NMDA receptors (hippocampus); test: Receptor binding ex vivo on rat brain membrane preparations
Method: (§1) Studying the mechanisms of action of the preventive and curative effect of Phenotropil (100 mg/kg) with single and subchronic administration (for 7 days) in terms of receptor binding to dopamine (D1, D2, D3 in the striatum), serotonin (5-HT2—frontal cortex) glutamate (NMDA in the hippocampus), the GABAA benzodiazepine (BDZ—cortex) and acetylcholine (nACh—cortex) receptors was performed on membrane preparations isolated from various competent rat brain structures. The methods are well known and described. Baseline studies in normal state and during the anticholinergic scopolamine induced CRPA amnesia served as the comparison groups (Table 7.4 and 7.5).

[3] = tested on: GABAA benzodiazepine (BDZ) receptors (cortex); test: as above; conditions: 100 mg/kg single dose during scopolamine amnesia
Method: as §1

[4] = tested on: acetylcholine nACh receptors (cortex); test: as above
Method: as §1

[5] = tested on: serotonin 5-HT2 receptors (frontal cortex); test: as above
Method: as §1

cAMP = cAMP level in functional dysmenorrhea patients; format: in vivo, human; conditions: for cAMP level / cAMP level, change in % (vs background dysmenorrhea): human plasma, primary dysmenorrhoea, first phase of the cycle
Method: Investigation of the effect of Phenotropil in amenorrhea and functional dysmenorrhea was conducted on groups of patients aged 14-27 years. The first group (20-27 years) diagnosed with schizophrenia, was on the maintenance neuroleptic therapy and had menstrual cycle irregularities in the form of amenorrhea (for more than 6 months). Of those, 4 had amenorrhea of not established nature, observed also prior to the pronounced primary manifestation of mental disorder, 6 patients had amenorrhea that developed during treatment with neuroleptics. Phenotropil, tablets was administered in doses of 100 mg and 200 mg per day as part of a complex antipsychotic therapy as a corrector of psychogenic side effects of neuroleptics. The dose was selected based on the individual and clinical features of the patients. The duration of Phenotropil therapy was 3 months. Two groups (14-18 years) with functional dysmenorrhea and manifestations of pronounced spastic symptoms were studied. Duration of the Phenotropil monotherapy (50 and 100 mg per day) was one month followed by administration of the drug at one-week courses as a preventive agent. Patients with functional dysmenorrhea were investigated for cAMP level in comparison with the norm control group. The cAMP level was determined using the standard kits, by the method based on the competition with the labeled cyclic 3′,5-adenosine monophosphate in the level of binding with […].

[6] = normal conditions and high physical activity; cited from earlier work
MDA = MDA (lipid peroxidation) in saliva after topical course; format: in vivo; conditions: human saliva after topical course treatment, 100 mg per 100 ml water
Excerpt: Studies of the effects of Phenotropil on condition of paradontium, enamel and dentin with topic application involved men and women (45-54 years) diagnosed with periodontitis, parodontosis and caries. Enrollment of groups by separate indicators in this age failed. In the vast majority of subjects, the diseases were combined. The gender ratio in groups was: 30.0% men and 70.0% women, the ratio of smokers to non-smokers 60:40, the number of female smokers was higher than male smokers by 35.0%. All patients received every three days the required amount of 0.1%, 0.2% or 0.3% solution of Phenotropil or placebo. The solutions were applied daily as dental trays (for 30 sec.) in the morning and evening at 30 ml per application for 30 days. Food and drinks intake, including water, were not recommended for 2 hours after the procedure. All patients underwent a dental check-up and standard hygienic treatment with removing plaque and dental scale and lavaging the gingival pockets with 1% Phenotropil solution. For each subject, the studied parameters were recorded; the aggregate integral indicator of the general periodontal condition of enamel and dentin was calculated, in the negative scores. The examinations were conducted once a week throughout the period of monotherapy. […]

mice [7] = test: Fertility of female mice aged 510 days; format: in vivo
Method: Investigation of the effect of Phenotropil on the fertility of mice was performed in the spring period in females aged 510 days (30 animals per group). Termination of the reproductive age was established by placing every three females to a fertile male. Mating was determined by the presence of vaginal plugs. Females not mated during one month were included in the study. Throughout the entire study period (32 days), Phenotropil was administered one time per day intragastrically to the experimental group in a dose of 100 mg/kg with distilled water; the control animals received distilled water. On the eighth day of the experiment, the females were introduced to males in the following combination: two experimental and one control animal or […]. The procedure was repeated for females not covered at each stage. The same fertile males were not used for mating.

mice [8] = test: Toxic effect of ethanol (lateral position, lethal dose); format: in vivo; conditions: 25.0-200 mg/kg
Excerpt: The antitoxic, sobering and anticraving, activity, as well as the effect of Phenotropil in abstinence was studied on white outbred male rats (weighing 180-220 g) and male mice (weighing 18-24 g) in chronic alcoholism. […] Alcoholized rats after four months of alcoholism and treatment with Phenotropilom voluntarily give up intake of alcohol (anticraving activity) with free choice of water and alcohol (Table 11).

[9] = 100 mg/kg after scopolamine-induced CRPA amnesia
[10] = NMDA hippocampus, 100 mg/kg single dose during scopolamine amnesia
[11] = nACh cortex, 100 mg/kg single dose during scopolamine amnesia
[12] = 5-HT2 frontal cortex, 100 mg/kg single dose during scopolamine amnesia
[13] = 100 mg/kg i.g. daily, by the morning of day 9

NC(=O)CN1CC(c2ccccc2)CC1=O (racemic) [Compound 1, (RS)-2-(2-oxo-4-phenylpyrrolidine-1-yl)acetamide]
increase of daily urine output, average index ([1]; 25, 50, 100 mg in the morning, first three days): 30-37%
Daily urine volume (ml/day, %) ([1]; 25 mg/day): 130 * %
Daily urine volume (ml/day, %) ([1]; 50 mg/day): 137 * %
Daily urine volume (ml/day, %) ([1]; 100 mg/day): 137 * %
fluctuations in urine output ([1]; next 7 days): 5-10%
decrease in density of NMDA receptors vs scopolamine amnesia [2, 9]: 12%
Bmax change vs saline CRPA control [2, 10]: +69%
Bmax change vs scopolamine amnesia group [2, 10]: −12%
Kd change vs saline CRPA control [2, 10]: +18.4%
Kd change vs scopolamine amnesia group [2, 10]: +9.0%
Bmax change vs saline CRPA control [3]: +4%
Kd change vs saline CRPA control [3]: −3.8%
Kd change vs scopolamine amnesia group [3]: +9.3%
decrease in density of nACh receptors vs scopolamine amnesia [4, 9]: 46%
Bmax change vs saline CRPA control [4, 11]: +6%
Bmax change vs scopolamine amnesia group [4, 11]: −46%
Kd change vs saline CRPA control [4, 11]: +39.5%
Kd change vs scopolamine amnesia group [4, 11]: +14.4%
Bmax, percentage relative to control ([5]; 5-HT2, subchronic 100 mg/kg/day, no pathology): −18%*
Bmax change vs saline CRPA control [5, 12]: +31%
Kd change vs saline CRPA control [5, 12]: +19.4%
Kd change vs scopolamine amnesia group [5, 12]: +3.0%
decrease of density (Bmax) of 5-HT2 receptors vs control ([5]; subchronic 100 mg/kg, no pathology): 18%
effect of course use on serum cAMP (cAMP; functional dysmenorrhoea, monotherapy 50 and 100 mg per day, 30 days): restored the functional norm of cAMP indicators
cAMP level (cAMP; dose 50 mg): 14.35 ± 0.87 nmol/L
cAMP level, change in % (vs background dysmenorrhea) (cAMP; dose 50 mg): −32%
cAMP level (cAMP; dose 100 mg): 12.77 ± 1.24 nmol/L
cAMP level, change in % (vs background dysmenorrhea) (cAMP; dose 100 mg): −39%
time of excretion from the body [6]: 72 h
MDA content (MDA): 0.026 ± 0.0415 nmol/L
females left uncovered (of 30) (mice [7]; 100 mg/kg i.g. daily, after 32 days): 6
females covered (of 30) (mice [7]; [13]): 9
females covered, % of the total number in the group (mice [7]; [13]): 30.0%
females covered (of 30) (mice [7]; 100 mg/kg i.g. daily, by the morning of day 17): 11
females covered (of 30) (mice [7]; 100 mg/kg i.g. daily, by the morning of day 25): 4
Fertility (% of animals in the group) (mice [7]; mice, 100 mg/kg): 80.0 * %
toxic effect of ethanol (lateral position indicator and lethal dose) (mice [8]): reduced tenfold
